The term IC50 denotes the midpoint of a concentration-inhibition curve. Lower therefore signals greater potency. Usually half-life stands for how long it takes for the measured level to halve. A higher half-life goes with slow loss.

The source of these data is ChEMBL document CHEMBL2086273, “Significant activity of ecdysteroids on the resistance to doxorubicin in mammalian cancer cells expressing the human ABCB1 transporter” (J Med Chem, 2012).

For series [1], the target named is T1, ATP-dependent translocase ABCB1 (Homo sapiens, UniProt P08183). Put plainly: Inhibition of human ABCB1 expressed in mouse L5178 cells assessed as 75% inhibition of cell proliferation at compound-doxorubicin ratio of 81.5:1 after 48 hrs by MTT assay. It counts as cell-based. The following applies: l5178, 48 h.
A short description of series [2]: Antiproliferative activity against multidrug-resistant mouse L5178 cells after 72 hrs by MTT assay. It counts as functional, cell-based. The following applies: L5178, 72 h. (In general: Tetrazolium dyes change colour on reduction, which living cells bring about.)
Series [3] deals with T1, ATP-dependent translocase ABCB1. Put plainly: Inhibition of human ABCB1 expressed in mouse L5178 cells assessed as 95% inhibition of cell proliferation at compound-doxorubicin ratio of 81.5:1 after 48 hrs by MTT assay. It counts as cell-based. The following applies: l5178, 48 h.
The target is the same in series [4]. Description: Inhibition of human ABCB1 expressed in mouse L5178 cells assessed as 50% inhibition of cell proliferation at compound-doxorubicin ratio of 81.5:1 after 48 hrs by MTT assay. The following applies: l5178, 48 h. It is filed as cell-based.
The target is the same in series [5]. Put plainly: Inhibition of human ABCB1 pump expressed in mouse L5178 cells assessed as fluorescence activity ratio at 20 uM for 10 mins by flow cytometry relative to control. It is filed as cell-based. The following applies: l5178, 10 min. A general note: A flow cytometer gives signals particle by particle.
Series [6] has the same target. Description: Inhibition of human ABCB1 expressed in mouse L5178 cells assessed as 75% inhibition of cell proliferation at compound-doxorubicin ratio of 40.8:1 after 48 hrs by MTT assay. It is filed as cell-based. The following applies: l5178, 48 h.
For series [7] the target is unchanged. Description: Inhibition of human ABCB1 expressed in mouse L5178 cells assessed as 50% inhibition of cell proliferation at compound-doxorubicin ratio of 40.8:1 after 48 hrs by MTT assay. It counts as cell-based. The following applies: l5178, 48 h.
Series [8] has the same target. Put plainly: Inhibition of human ABCB1 expressed in mouse L5178 cells assessed as 95% inhibition of cell proliferation at compound-doxorubicin ratio of 40.8:1 after 48 hrs by MTT assay. It is filed as cell-based. The following applies: l5178, 48 h.
Series [9] shares this target. Put plainly: Inhibition of human ABCB1 expressed in mouse L5178 cells assessed as 95% inhibition of cell proliferation at compound-doxorubicin ratio of 20.4:1 after 48 hrs by MTT assay. It is filed as cell-based. The following applies: l5178, 48 h.
Series [10] concerns Mus musculus. Description: Acute toxicity in CFLP mouse at 250 mg/kg, ip co-administered with […] doxorubicin after 48 hrs. It counts as organism-based. Further details: dose 250 mg/kg, route intraperitoneal; call rule not given here. The following applies: in vivo.
Series [11] has as its system Mus musculus. Description: Acute toxicity in CFLP mouse at 250 mg/kg, ip administered as single dose. Further details: dose 250 mg/kg, route intraperitoneal. The following applies: in vivo. It is filed as organism-based.
A short description of series [12]: Drug degradation of the compound in hydrochloric acid solution at pH 1.48 assessed as 20E 20,22-acetonide formation at 1 mg/ml. It counts as physicochemical. The following applies: buffer.
Series [13] concerns the target T1, ATP-dependent translocase ABCB1. Put plainly: Inhibition of human ABCB1 expressed in mouse L5178 cells assessed as 75% inhibition of cell proliferation at compound-doxorubicin ratio of 20.4:1 after 48 hrs by MTT assay. It counts as cell-based. The following applies: l5178, 48 h.
Series [14] in a line: Half life of the compound in hydrochloric acid solution at pH 1.48 at 1 mg/ml. It is filed as physicochemical.
Series [15] has as its target T1, ATP-dependent translocase ABCB1. Description: Inhibition of human ABCB1 expressed in mouse L5178 cells assessed as 50% inhibition of cell proliferation at compound-doxorubicin ratio of 20.4:1 after 48 hrs by MTT assay. It counts as cell-based. The following applies: l5178, 48 h.

T1 sequence (P08183 whole entry): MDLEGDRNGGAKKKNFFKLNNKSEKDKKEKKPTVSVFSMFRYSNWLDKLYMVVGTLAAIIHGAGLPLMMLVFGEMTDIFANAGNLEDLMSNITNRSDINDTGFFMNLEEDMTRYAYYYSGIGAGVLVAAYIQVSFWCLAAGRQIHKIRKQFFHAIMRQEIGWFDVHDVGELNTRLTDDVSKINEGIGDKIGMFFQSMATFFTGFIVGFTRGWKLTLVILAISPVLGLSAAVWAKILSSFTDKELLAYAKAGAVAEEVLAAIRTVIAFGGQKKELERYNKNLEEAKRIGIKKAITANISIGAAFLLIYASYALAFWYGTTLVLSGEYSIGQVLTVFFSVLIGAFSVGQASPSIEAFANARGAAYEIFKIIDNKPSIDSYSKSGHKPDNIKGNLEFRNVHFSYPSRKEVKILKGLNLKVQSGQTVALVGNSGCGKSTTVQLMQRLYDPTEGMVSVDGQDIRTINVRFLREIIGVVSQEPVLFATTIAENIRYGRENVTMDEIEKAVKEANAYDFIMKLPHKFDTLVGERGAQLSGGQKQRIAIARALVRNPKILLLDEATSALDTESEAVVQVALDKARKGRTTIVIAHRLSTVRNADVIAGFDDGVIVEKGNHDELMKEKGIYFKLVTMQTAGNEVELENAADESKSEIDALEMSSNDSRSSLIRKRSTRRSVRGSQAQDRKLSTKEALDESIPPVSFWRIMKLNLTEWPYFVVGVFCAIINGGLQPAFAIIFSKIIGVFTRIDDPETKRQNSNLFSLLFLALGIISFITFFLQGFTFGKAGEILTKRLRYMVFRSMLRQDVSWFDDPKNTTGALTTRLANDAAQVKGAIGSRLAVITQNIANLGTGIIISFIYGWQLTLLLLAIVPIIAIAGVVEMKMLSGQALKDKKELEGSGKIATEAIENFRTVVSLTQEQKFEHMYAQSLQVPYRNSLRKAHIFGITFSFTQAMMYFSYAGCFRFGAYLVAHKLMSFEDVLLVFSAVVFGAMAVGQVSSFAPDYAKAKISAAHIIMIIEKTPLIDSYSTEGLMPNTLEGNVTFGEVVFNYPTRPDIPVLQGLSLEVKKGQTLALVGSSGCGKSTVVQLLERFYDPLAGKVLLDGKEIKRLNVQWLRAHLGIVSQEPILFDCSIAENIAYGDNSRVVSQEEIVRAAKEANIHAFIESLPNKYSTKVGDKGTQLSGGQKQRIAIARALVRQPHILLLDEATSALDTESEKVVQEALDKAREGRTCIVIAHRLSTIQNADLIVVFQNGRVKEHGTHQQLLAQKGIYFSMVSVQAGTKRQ

Turning to `CC(C)(O)CC[C@@H](O)[C@](C)(O)[C@H]1CC[C@]2(O)C3=CC(=O)[C@@H]4C[C@@H](O)[C@@H](O)C[C@]4(C)[C@H]3CC[C@]12C`, the results for the “fractional inhibitory concentration index (FICI)” value in series [1], in series [3] and in series [4] were 0.91, 0.69 and 1.18, respectively. In addition, the IC50 in series [2] amounted to 30 µM. Further, the Ratio in series [5] is listed as 1.03.
Take `CC(C)(O)CC[C@H]1OC(C)(C)O[C@]1(C)[C@H]1CC[C@@]2(O)C3=CC(=O)[C@@H]4C[C@@H](O)[C@@H](O)[C@@H](O)[C@]4(C)[C@H]3CC[C@]12C`: the “fractional inhibitory concentration index (FICI)” value in series [6] turned out to be 0.51; in [7], 1.16; in series [8], 0.23. For the same molecule, the Ratio in series [5] was determined as 1.14.
Regarding `C=C(CCCC(C)(C)O)[C@H]1CC[C@@]2(O)C3=CC(=O)[C@@H]4C[C@@H](O)[C@@H](O)C[C@]4(C)[C@H]3CC[C@]12C`, the “fractional inhibitory concentration index (FICI)” value in series [6] is recorded as 0.71; in series [7] it was 1.05; in series [8], 0.53. Also, in [5], the Ratio was determined as 0.88.
On the same counts, the results for `CC(O)(CO)CC[C@H]1OC(C)(C)O[C@]1(C)[C@H]1CC[C@@]2(O)C3=CC(=O)[C@]4(O)C[C@@H](O)[C@@H](O)C[C@]4(C)[C@H]3CC[C@]12C` (some centres not stated) are 0.16, 0.42, 0.062 and 13.32.
Take `CC(O)(CO)CC[C@@H](O)[C@](C)(O)[C@H]1CC[C@@]2(O)C3=CC(=O)[C@]4(O)C[C@@H](O)[C@@H](O)C[C@]4(C)[C@H]3CC[C@]12C` (some centres not stated): the entries for the “fractional inhibitory concentration index (FICI)” value in [1], in series [3] and in series [4] were 0.47, 0.12 and 2.24, respectively. Further, in series [2], half-maximal inhibition (IC50) required 30 µM. Moreover, in series [5], the Ratio worked out at 1.32.
With `CC(C)(O)CC[C@@H](OC(=O)c1ccccc1)[C@](C)(O)[C@H]1CC[C@@]2(O)C3=CC(=O)[C@@H]4C[C@@H](O)[C@@H](O)C[C@]4(C)[C@H]3CC[C@]12C`, the figures for the “fractional inhibitory concentration index (FICI)” value in series [6], in series [7] and in [8] were 0.43, 0.58 and 0.32, respectively. Moreover, the Ratio in series [5] is 2.18.
Take `C[C@]12C[C@H](O)[C@H](O)C[C@H]1C(=O)C=C1[C@@H]2CC[C@]2(C)C(=O)CC[C@@]12O` [RUBROSTERONE]: the “fractional inhibitory concentration index (FICI)” value in series [6] is 0.65; in [7] it was 1.12; in series [8], 0.41. Further, the Ratio in series [5] was found to be 0.89.
Consider `C=C(C)CC[C@@H](O)[C@](C)(O)[C@H]1CC[C@@]2(O)C3=CC(=O)[C@@H]4C[C@@H](O)[C@@H](O)C[C@]4(C)C3=CC[C@]12C`, for which the results for the “fractional inhibitory concentration index (FICI)” value in series [6], in [7] and in series [8] were 0.85, 1.75 and 0.43, respectively. Besides, the Ratio in series [5] was 1.43.
In the case of `CC(C)(O)CC[C@H]1OC(C)(C)O[C@]1(C)[C@H]1CC[C@@]2(O)C3=CC(=O)[C@@H]4C[C@H]5OC(C)(C)O[C@H]5C[C@]4(C)[C@H]3CC[C@]12C`, the results for the “fractional inhibitory concentration index (FICI)” value in series [9], in series [13] and in series [15] were 0.073, 0.14 and 0.28, respectively. Also, the Activity result in the series with Mus musculus [10] and in the series with Mus musculus [11] was “Non-toxic” throughout. For the same molecule, the Drug degradation entry in [12] is listed as “Active”. Besides, the half-life at 1 mg/ml in series [14] was 7.3 min. The Ratio in series [5] is 19.13.
With `C=C(C)C(C[C@@H](O)[C@](C)(O)[C@H]1CC[C@@]2(O)C3=CC(=O)[C@]4(O)C[C@@H](O)[C@@H](O)C[C@]4(C)[C@H]3CC[C@]12C)C(C)O` (some centres not stated) [AJUGASTERONE B], the “fractional inhibitory concentration index (FICI)” value is 0.59 in series [6], 1.21 in series [7] and 0.3 in series [8]. For the same molecule, the Ratio in series [5] amounted to 0.7.
On the same counts, the results for `CC(C)CC[C@@H](O)[C@](C)(O)[C@H]1CC[C@@]2(O)C3=CC(=O)[C@@H]4C[C@@H](O)[C@@H](O)C[C@]4(C)C3=CC[C@]12C` [DACRYHAINANSTERONE] are 2.92, 1.76, 5.46 and 1.07.
Consider `CC[C@H](C[C@@H](O)[C@](C)(O)[C@H]1CC[C@@]2(O)C3=CC(=O)[C@@H]4C[C@@H](O)[C@@H](O)C[C@]4(C)[C@H]3CC[C@]12C)C(C)(C)O` [MAKISTERONE C], for which the “fractional inhibitory concentration index (FICI)” value in series [6] was found to be 0.42; in series [7] it was 0.98; in [8], 0.2. For the same molecule, in series [5], the Ratio is 0.66.
For `CC(C)(O)CC[C@@H](O)[C@](C)(O)[C@H]1CC[C@@]2(O)C3=CC(=O)[C@@H]4C[C@H](O)[C@@H](O)C[C@]4(C)[C@H]3CC[C@]12C`, the “fractional inhibitory concentration index (FICI)” value was 0.45 in series [1], 0.22 in series [3] and 1.16 in series [4]. Besides, the IC50 in series [2] turned out to be 30 µM. Also, the Ratio in [5] was 0.89.
As to `CC(=O)O[C@H]1C[C@]2(C)[C@H]3CC[C@]4(C)[C@@H]([C@@](C)(O)[C@@H](CCC(C)(C)O)OC(C)=O)CC[C@@]4(O)C3=CC(=O)[C@]2(O)C[C@H]1OC(C)=O`, the results for the “fractional inhibitory concentration index (FICI)” value in series [6], in series [7] and in [8] were 0.3, 0.35 and 0.26, respectively. Moreover, the Ratio in series [5] was found to be 47.95.
`CCC1C[C@H]([C@](C)(O)[C@H]2CC[C@@]3(O)C4=CC(=O)[C@@H]5C[C@@H](O)[C@@H](O)C[C@]5(C)[C@H]4CC[C@]23C)OC(=O)C1C` (some centres not stated) [CAPITASTERONE]: the “fractional inhibitory concentration index (FICI)” value in [6] was found to be 0.74; in series [7], 1.35; in series [8] it was 0.49. The Ratio in series [5] came out at 0.63.
Take `CC(C)CC[C@H](O)[C@](C)(O)[C@H]1CC[C@@]2(O)C3=CC(=O)[C@@H]4C[C@@H](O)[C@@H](O)C[C@]4(C)[C@H]3[C@H](O)C[C@]12C` [AJUGASTERONE C]: the entries for the “fractional inhibitory concentration index (FICI)” value in series [9], in series [13] and in [15] were 1.88, 1.66 and 1.79, respectively. The IC50 in [2] turned out to be 30 µM. For the same molecule, the Ratio in series [5] amounted to 1.13.
